# Source: PubChem BioAssay (NCI)
#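 Assay format: 96-well plates, 48-hour exposure. At the GI50, growth is halved. Definition used: TGI = concentration required for complete inhibition of growth.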
# Legend:
# Assay in all cases: NCI-60 cell line screen, 48 h
# SNB-75 CNS = system: SNB-75 CNS
# A549 NSCLC = system: A549 NSCLC
# IGROV1 ovarian = system: IGROV1 ovarian
# HOP-62 NSCLC = system: HOP-62 NSCLC
# 786-0 renal = system: 786-0 renal
# T-47D breast = system: T-47D breast
# RPMI-8226 leukemia = system: RPMI-8226 leukemia
# SK-MEL-5 melanoma = system: SK-MEL-5 melanoma
# RXF 393 renal = system: RXF 393 renal
# A498 renal = system: A498 renal
SMILES,GI50 (SNB-75 CNS),TGI (SNB-75 CNS),GI50 (A549 NSCLC),TGI (A549 NSCLC),GI50 (IGROV1 ovarian),TGI (IGROV1 ovarian),GI50 (HOP-62 NSCLC),TGI (HOP-62 NSCLC),GI50 (786-0 renal),TGI (786-0 renal),GI50 (T-47D breast),TGI (T-47D breast),GI50 (RPMI-8226 leukemia),TGI (RPMI-8226 leukemia),GI50 (SK-MEL-5 melanoma),TGI (SK-MEL-5 melanoma),GI50 (RXF 393 renal),TGI (RXF 393 renal),TGI (A498 renal),GI50 (A498 renal)
COc1ccccc1-c1nccc(COc2ccccc2C[C@@H](Oc2ncnc3sc(-c4ccc(F)cc4)c(-c4ccc(OCCN5CCN(C)CC5)c(Cl)c4C)c23)C(=O)O)n1,0.0348 µM,1.29 µM,10 µM,31.7 µM,2.27 µM,6.08 µM,2.39 µM,7.21 µM,2.01 µM,4.2 µM,3.49 µM,23 µM,< 0.0104 µM,0.285 µM,1.71 µM,3.12 µM,0.61 µM,2.16 µM,0.522 µM,–
COc1ccc(-c2cn(-c3cc(OC)c(OC)c(OC)c3)c(=O)n2-c2ccccc2)cc1,30.7 µM,> 100 µM,> 100 µM,> 100 µM,27.6 µM,> 100 µM,66.2 µM,> 100 µM,38.9 µM,> 100 µM,27.3 µM,> 100 µM,> 100 µM,> 100 µM,21.5 µM,> 100 µM,45.4 µM,> 100 µM,> 100 µM,> 100 µM
Cc1cc(Nc2cc(N3CCN(C)CC3)nc(C#Cc3ccccc3)n2)n[nH]1,0.725 µM,2.91 µM,2.81 µM,13.3 µM,1.13 µM,6.05 µM,3.19 µM,13.9 µM,3.13 µM,14.2 µM,4.86 µM,23 µM,12.6 µM,59.3 µM,4.32 µM,16.5 µM,1.18 µM,3.79 µM,3.68 µM,0.703 µM
O=C(/C(=N/Nc1cn[nH]c(=O)c1Cl)c1ccccc1)c1ccccc1,–,71.6 µM,–,> 100 µM,–,75.1 µM,–,> 100 µM,–,68.7 µM,–,62.7 µM,–,60.7 µM,–,> 100 µM,–,47.3 µM,50.4 µM,–
Cc1cc(C(=O)Nc2cc(Nc3ncccc3-c3ncnc4nc[nH]c34)ccc2F)cc(C(C)(C)C#N)c1,8.92 µM,> 100 µM,3.77 µM,> 100 µM,0.694 µM,> 100 µM,0.461 µM,> 100 µM,13.9 µM,> 100 µM,2.59 µM,> 91.7 µM,2.01 µM,53.5 µM,1.38 µM,13.7 µM,4.82 µM,42 µM,0.491 µM,0.0748 µM
NC(=O)c1c(NC(=O)c2cccc(C(F)(F)F)c2)sc2c1CCC(=O)C2,0.507 µM,3.84 µM,1.88 µM,> 100 µM,0.468 µM,3.47 µM,3.06 µM,> 91.5 µM,1.94 µM,> 100 µM,0.274 µM,–,0.127 µM,0.745 µM,1.18 µM,2.95 µM,0.352 µM,2.92 µM,> 100 µM,3.33 µM
COC12C=C/C(=C(/C(=O)OCc3csc(SC)n3)C(=O)CCCCCCCCC3(OC)C=C/C(=C(/C(=O)OCc4cnc(SC)s4)C(=O)CCCCCCCC1)O3)O2 (stereo not drawn),7.61 µM,28.9 µM,4.65 µM,> 100 µM,3.89 µM,83.6 µM,4.48 µM,70.6 µM,4.93 µM,26.1 µM,2.94 µM,> 100 µM,0.946 µM,> 100 µM,1.7 µM,3.56 µM,1.75 µM,3.52 µM,21.8 µM,2.44 µM
Fc1ccc(-c2cc(-c3cn[nH]c3-c3ccccn3)ccn2)cc1,> 25 µM,> 25 µM,> 25 µM,> 25 µM,> 25 µM,> 25 µM,> 25 µM,> 25 µM,> 22.6 µM,> 25 µM,> 25 µM,> 25 µM,> 25 µM,> 25 µM,> 25 µM,> 25 µM,> 25 µM,> 25 µM,> 25 µM,24.8 µM
C/C(N=NC(=S)N1CCCCCC1)=C1\C=CC=CN1O,–,72.7 µM,–,> 92.3 µM,–,> 53.8 µM,–,> 20.5 µM,–,> 49.9 µM,–,77.7 µM,–,11.1 µM,–,35.3 µM,–,79.5 µM,92.1 µM,–
C=C[C@@]1(C)CC(=O)[C@]2(O)[C@@]3(C)[C@@H](O)CCC(C)(C)[C@@H]3[C@H](O)[C@@H](OC(C)=O)[C@@]2(C)O1,–,> 100 µM,–,> 100 µM,–,> 100 µM,–,> 100 µM,–,> 100 µM,–,> 100 µM,–,95.4 µM,–,> 100 µM,–,> 100 µM,> 100 µM,–
COC(=O)C1=C(C(=O)OC)C(C(=O)OC)C(C(=O)OC)C(C(=O)OC)(C(=O)OC)C(C(=O)OC)=C1C(=O)OC (stereo not drawn),–,34.5 µM,–,46.4 µM,–,36.8 µM,–,58.1 µM,–,26.3 µM,–,50.8 µM,–,10.5 µM,–,31.6 µM,–,16.7 µM,29.3 µM,–
O=C(O)C(Cc1c[nH]c2ccccc12)N1C(=O)c2ccccc2C1=O (stereo not drawn),–,> 100 µM,–,> 100 µM,–,> 100 µM,–,> 100 µM,–,> 100 µM,–,> 100 µM,–,> 100 µM,–,> 100 µM,–,> 100 µM,> 100 µM,–
